Assay results: patent publication US20080227813A1, “Pharmaceutical compositions and methods for treating diseases associated with neurodegeneration” (priority 2006, published 2008)

What was measured:
patients with ALS [1] = system: patients with ALS
Method: An open label extension study was conducted in patients from Example 23 who completed 12 weeks of treatment and a Week 16 Follow-up Visit. Subjects received 100 mg tid Compound I daily for approximately six months. Visits occurred at Screening, Baseline, and once a month for six months (total of 8 visits). A telephone call at Month 7 ended subject participation in the study.
Disease Progression: There are four main indicators of disease progression that can be measured accurately in these time frames; ALSFRS-R, % VC, weight, and body mass index. The analysis assumed that any subject who dropped out (or died) had the worst possible outcome, based on an analysis by Finkelstein and Schoenfeld (Stat. Med. 1999 18:1341-54). This non-parametric analysis orders outcomes so that subjects who dropped out (or died) were considered to have a worse outcome than subjects who lived. For comparison these characteristics for the placebo group in the Celebrex® trial are included.
CRL:(WI)BR rats [2] = test: Acute intravenous toxicity in rats; assay type: in vivo; settings: rat
Method: A control and five dose groups were involved in the rat study at dose levels of 150 mg/kg, 200 mg/kg, 250 mg/kg, 300 mg/kg and 350 mg/kg (equal to 93 mg/kg, 124 mg/kg, 155 mg/kg, 186 mg/kg and 217 mg/kg free base, n=5 animals/sex/group).

patients with ALS [3] = settings: high dose
Method: A clinical trial was conducted to assess the safety and tolerability of Compound I, at three dosages (75, 150, and 300 mg/day) as compared with placebo over 12 weeks of treatment in 80 patients with ALS. It was also conducted to determine the pharmacokinetic characterization of Compound I in serum, as well as cerebrospinal fluid (CSF) penetration, in a subset of the 80 patients participating in the study. This information was correlated with safety measures.
Methodology: This study was a multicenter, double-blind, placebo-controlled study of outpatients with ALS. Eighty subjects at 8-10 centers were enrolled. Subjects received placebo, 25 mg tid, 50 mg tid or 100 mg tid Compound I daily. All 80 subjects received treatment to determine safety and tolerability after 12 weeks of daily treatment. Follow-up visits occurred at 2, 4, 6, 8, 10, 12, and 16 weeks. A subset of participants were admitted to the General Clinical Research Center (GCRC), clinical research center or other department for serum pharmacokinetic studies at Baseline and Week 4, with additional trough serum sampling at Weeks 2, 8, and 12. Cerebrospinal fluid (CSF) penetration was only be evaluated at Week 4.

CRL(:WI)BR rats = test: 28-day repeated dose oral toxicity study in rats; assay type: in vivo, rat; settings: for No observed adverse effect level (NOAEL): rat male and female, 28-day oral
Method: To assess recovery post treatment, an additional 5 males and females were included in both the control and highest dosage groups. Treatment was carried out by gavage once daily. Control animals were treated with physiologic saline in the same way.
Pre-treatment: general condition and behavior activity patterns were observed. Also in a subgroup of 5 male and 5 female animals, hematological and clinical chemistry tests were performed.
During the treatment period and following a two-week recovery period the clinical observations were made daily. At weekly intervals body weight and food consumption were measured.
At the end of the treatment, hematological, clinical chemistry evaluation and gross necropsy with organ weight assessment were conducted. […] In addition, the liver and kidneys and the organs showing macroscopic changes were examined microscopically in the low and middle dose groups, too.

CRL:NMRI BR mice = test: Acute intraperitoneal toxicity in mice; assay type: in vivo; settings: mouse
Method: (§1) Acute intraperitoneal toxicity studies were performed in rats (CRL(WI:)BR) and in mice (CRL: NMRI BR).
In the case of the mouse study a control and five dose groups were involved at dose levels of 850 mg/kg, 1100 mg/kg, 1500 mg/kg, 1900 mg/kg and 2600 mg/kg (equal to 527 mg/kg, 682 mg/kg, 930 mg/kg, 1178 mg/kg and 1613 mg/kg free base, n=5 animals/sex/group).

[4] = Double-blind multiple oral dose pharmacokinetics in male healthy volunteers
Method: The study was designed to compare the pharmacokinetic profile of Compound I from the following dose regimens: • A: Administration of 1 capsule containing 50 mg of Compound I or of 1 capsule of placebo, three times a day, total dose 150 mg. • B: Administration of 1 capsule containing 100 mg of Compound I or of 1 capsule of placebo, three times a day, total dose 300 mg.
The treatments were applied in parallel groups. […] The study was conducted according to the study protocol and in accordance with GCP.

CRL:(WI)BR rats [5] = test: Acute intraperitoneal toxicity in rats; assay type: in vivo; settings: rat
Method: as §1
A control and five dose groups were involved in the rat study at dose levels of 500 mg/kg, 650 mg/kg, 800 mg/kg, 950 mg/kg and 1200 mg/kg (equal to 310 mg/kg, 403 mg/kg, 496 mg/kg, 589 mg/kg and 744 mg/kg free base, n=5 animals/sex/group).

Beagle dogs = test: 14-day repeated dose oral toxicity study in Beagle dogs; assay type: in vivo; settings: dog, 210 mg/kg/day oral, 14 days
Method: The control animals were treated in the same way with placebo gelatin capsules.
The checks of mortality were done twice daily. The clinical observations were performed at least twice daily and the weighing of non-consumed food was done daily. The body weights of the animals were measured once a week. The hematological, clinical chemical and ECG investigations, urinalysis and the opthalmological examinations were performed prior to the treatment and at the end of the treatment period. Terminally gross necropsy and histopathological examinations were performed according to the study plan.

[6] = 69 assigned to treatment, 100 mg tid, 6 months
[7] = number of patients, open-label 100 mg tid
[8] = vs placebo cohort of the Celebrex® study (historical control)

Structure (SMILES): [O-][n+]1cccc(/C(Cl)=N/OC[C@H](O)CN2CCCCC2)c1 [Compound I, N-[2-hydroxy-3-(1-piperidinyl)-propoxy]-pyridine-1-oxide-3-carboximidoyl chloride]
- safety and tolerability (patients with ALS [1]; 6 month dosing): safe and well tolerated
- % Early Study Medication Discontinuation (patients with ALS [1]; [6]): 11.6%
- Completed Trial on Treatment (patients with ALS [1]; [6]): 61
- Early Study Medication Discontinuation (patients with ALS [1]; [6]): 8
- treatment discontinuation: Adverse Event (patients with ALS [1]; [7]): 1
- treatment discontinuation: Death (patients with ALS [1]; [7]): 1
- treatment discontinuation: Other Reasons (patients with ALS [1]; [7]): 0
- treatment discontinuation: Reason not listed (patients with ALS [1]; [7]): 0
- treatment discontinuation: Withdrew Consent (patients with ALS [1]; [7]): 6
- # Early Study Medication Discontinuations per Month (patients with ALS [1]; over 6-months): 1.33
- rate of ALSFRS-R decline (patients with ALS [1]; patients co-administered with riluzole vs without): no apparent difference
- progression of Vital Capacity (VC) (patients with ALS [1]; patients treated with riluzole in addition to Compound I vs those not treated with riluzole): appeared to progress more slowly
- change in serum creatinine levels (patients with ALS [1]; screening vs 6-month): no significant change
- slower decline by % VC (patients with ALS [1]; [8]): 7.6%
- slower decline by ALSFRS-R (patients with ALS [1]; [8]): 21.4%
- slower decline by BMI (patients with ALS [1]; [8]): 20.4%
- slower decline by weight (patients with ALS [1]; [8]): 22.8%
- Intravenous LD50 value (CRL:(WI)BR rats [2]; female, by base): 215 (190-764) by base mg/kg
- Intravenous LD50 value (CRL:(WI)BR rats [2]; female, by citrate): 346 (306-1232) by citrate mg/kg
- Intravenous LD50 value (CRL:(WI)BR rats [2]; male, by base): 197 (168-301) by base mg/kg
- Intravenous LD50 value (CRL:(WI)BR rats [2]; male, by citrate): 317 (271-485) by citrate mg/kg
- effect on ALSFRS-R (patients with ALS [3]; patients also treated with riluzole, not statistically significant): may improve ALSFRS-R
- effect on average ALSFRS-R score (patients with ALS [3]; patients not treated with riluzole): no effect
- No observed adverse effect level (NOAEL) (CRL(:WI)BR rats; by base): 233 mg/kg/day
- No observed adverse effect level (NOAEL) (CRL(:WI)BR rats; by citrate): 375 mg/kg/day
- mortality (CRL(:WI)BR rats; rat, 375, 750, 1500 mg/kg/day oral, 28 days): No deaths occurred
- Intraperitoneal LD50 value (CRL:NMRI BR mice; female, by base): 738 - by base mg/kg
- Intraperitoneal LD50 value (CRL:NMRI BR mice; female, by citrate): 1189 - by citrate mg/kg
- Intraperitoneal LD50 value (CRL:NMRI BR mice; male, by base): 839 (674-1023) by base mg/kg
- dose-adjusted AUC0-8 h ratio (2×50 mg dosing level/100 mg dosing level) ([4]; Day 1): 0.95
- dose-adjusted Cmax ratio (2×50 mg dosing level/100 mg dosing level) ([4]; Day 1): 0.94
- dose-adjusted AUC0-8 h ratio (2×50 mg dosing level/100 mg dosing level) ([4]; Day 10): 1.02
- dose-adjusted Cmax ratio (2×50 mg dosing level/100 mg dosing level) ([4]; Day 10): 0.88
- Racc accumulation ratio = AUC0-8 Day 10/AUC0-8 Day 1, GeoM ([4]; Treatment A, 50 mg tid): 1.512
- Racc accumulation ratio = AUC0-8 Day 10/AUC0-8 Day 1, MEAN ([4]; Treatment A, 50 mg tid): 1.525
- Racc accumulation ratio = AUC0-8 Day 10/AUC0-8 Day 1, MEAN ([4]; Treatment B, 100 mg tid): 1.426
- Racc accumulation ratio = AUC0-8 Day 10/AUC0-8 Day 1, GeoM ([4]; continuation of Treatment B (100 mg tid) under a head printed as Treatment A): 1.415
- AUC0-inf, GeoM ([4]; human, in vivo, 50 mg): 680 ng·h/mL
- AUC0-inf, MEAN ([4]; human, in vivo, 50 mg): 691 ng·h/mL
- AUC0-tz, GeoM ([4]; human, in vivo, 50 mg): 621 ng·h/mL
- AUC0-tz, MEAN ([4]; human, in vivo, 50 mg): 632 ng·h/mL
- LinPK = AUC0-8 Day 10/AUC0-inf, GeoM ([4]; human, in vivo, 50 mg): 1.148
- LinPK = AUC0-8 Day 10/AUC0-inf, MEAN ([4]; human, in vivo, 50 mg): 1.166
- AUC0-8, MEAN ([4]; human, in vivo, 100 mg): 1101 ng·h/mL
- AUC0-inf, GeoM ([4]; human, in vivo, 100 mg): 1303 ng·h/mL
- AUC0-inf, MEAN ([4]; human, in vivo, 100 mg): 1344 ng·h/mL
- AUC0-tz, GeoM ([4]; human, in vivo, 100 mg): 1266 ng·h/mL
- AUC0-tz, MEAN ([4]; human, in vivo, 100 mg): 1307 ng·h/mL
- AUCt, MEAN ([4]; human, in vivo, 100 mg): 1540 ng·h/mL
- LinPK = AUC0-8 Day 10/AUC0-inf, GeoM ([4]; human, in vivo, 100 mg): 1.172
- LinPK = AUC0-8 Day 10/AUC0-inf, MEAN ([4]; human, in vivo, 100 mg): 1.187
- Intraperitoneal LD50 value (CRL:(WI)BR rats [5]; female, by base): 770 - by base mg/kg
- Intraperitoneal LD50 value (CRL:(WI)BR rats [5]; female, by citrate): 1241 - by citrate mg/kg
- Intraperitoneal LD50 value (CRL:(WI)BR rats [5]; male, by base): 698 (577-3871) by base mg/kg
- Intraperitoneal LD50 value (CRL:(WI)BR rats [5]; male, by citrate): 1125 (931-6241) by citrate mg/kg
- ECG or ophthalmological alterations (Beagle dogs): no direct treatment related ECG or opthalmological alterations
- clinical signs (Beagle dogs): decreased activity, tremor, ptosis, salivation, increased muscle tone, vomiting and thin feces
- liver histopathology (Beagle dogs): moderate degree proliferation of cells belonging to the mononuclear phagocyte system (MPS) of the liver
- mortality (Beagle dogs): no death occurred
- amount of metabolite No. 1 (rat hepatocytes): 0.32 % of the total radioactivity
- amount of metabolite No. 2 (rat hepatocytes): 1.89 % of the total radioactivity
- amount of metabolite No. 3 (rat hepatocytes): 47.7 % of the total radioactivity
- amount of metabolite No. 4 (rat hepatocytes): 15.1 % of the total radioactivity
- clearance (rat hepatocytes; rat, hepatocytes): 0.84 mL/h
- t1/2 (rat hepatocytes; rat, hepatocytes): 49.2 min
